Measurements published in US20100234390A1, “NOVEL COMPOUND AND THEIR USE” (priority 2007, published 2010).

Experiments:
Assay in all cases: Agar dilution MIC
Conditions in all cases: 35° C., 16-20 hours
S. epidermidis MRO 02045 = assay type: cell-based
Experimental: (§1) Briefly, the compounds of invention were weighed, dissolved in dimethyl sulfoxide, serially two fold diluted in the same solvent and then incorporated into molten Mueller Hinton Agar (MHA) in a petridish just before solidification, with each petridish containing a different concentration of a compound.
(§2) The bacterial inoculum was prepared by picking 3 to 5 well isolated bacterial colonies with the same morphological appearance from an 18-24 hours old culture with an inoculating loop, transferring the growth to a tube containing 3 mL of normal saline and adjusting the turbidity of the saline suspension to 0.5 Mc Farland Turbidity Standard equivalent to a bacterial population of 1.5×10^8 colony forming units (CFU) per mL of suspension. The suspension was diluted 1:10 in saline (i.e. 0.5 mL suspension 4.5 mL saline) to get a bacterial population of 1.5×10^7 CFU/mL as inoculum.
(§3) The inoculated petridishes were incubated at 35° C. in an ambient atmosphere for 16-20 hours.

S. epidermidis MRO 02002 = assay type: cell-based
Experimental: as §1, §2, §3

[1] = tested on: S. haemolyticus MRO 02064; assay type: cell-based
Experimental: as §1, §2, §3

[2] = tested on: S. epidermidis MRO 002046; assay type: cell-based
Experimental: as §1, §2, §3

S. epidermidis MRO 02095 = assay type: cell-based
Experimental: as §1, §2, §3

[3] = tested on: S. saprophyticus MRO 02003; assay type: cell-based
Experimental: as §1, §2, §3

[4] = tested on: M. catarrhalis ATCC 43627; assay type: cell-based, Moraxella catarrhalis
Experimental: as §1, §2, §3

[5] = tested on: M. catarrhalis ATCC 43628; assay type: cell-based, Moraxella catarrhalis
Experimental: as §1, §2, §3

[6] = tested on: M. catarrhalis ATCC 43617; assay type: cell-based, Moraxella catarrhalis
Experimental: as §1, §2, §3

E. faecalis MRO 04050 = assay type: cell-based, Enterococcus faecalis
Experimental: as §1, §2, §3

E. faecalis MRO 04035 = assay type: cell-based, Enterococcus faecalis
Experimental: as §1, §2, §3

E. faecalis ATCC 29212 = assay type: cell-based, Enterococcus faecalis
Experimental: as §1, §2, §3

E. faecalis ATCC 51299 = assay type: cell-based, Enterococcus faecalis
Experimental: as §1, §2, §3

E. faecalis MRO 04205 = assay type: cell-based, Enterococcus faecalis
Experimental: as §1, §2, §3

S. aureus MRO 0001 = assay type: cell-based, Staphylococcus aureus
Experimental: as §1, §2, §3

S. aureus MRO 00030 = assay type: cell-based, Staphylococcus aureus
Experimental: as §1, §2, §3

S. aureus MRO 00055 = assay type: cell-based, Staphylococcus aureus
Experimental: as §1, §2, §3

S. aureus MRO 00013 = assay type: cell-based, Staphylococcus aureus
Experimental: as §1, §2, §3

S. aureus MRO 002053 = assay type: cell-based, Staphylococcus aureus
Experimental: as §1, §2, §3

S. aureus MRO 00059 = assay type: cell-based, Staphylococcus aureus
Experimental: as §1, §2, §3

S. aureus MRO 0003 = assay type: cell-based, Staphylococcus aureus
Experimental: as §1, §2, §3

S. aureus ATCC 29213 = assay type: cell-based, Staphylococcus aureus
Experimental: as §1, §2, §3

S. aureus MRO 00048 = assay type: cell-based, Staphylococcus aureus
Experimental: as §1, §2, §3

S. aureus ATCC 43300 = assay type: cell-based, Staphylococcus aureus
Experimental: as §1, §2, §3

E. faecium MRO 04037 = assay type: cell-based, Enterococcus faecium
Experimental: as §1, §2, §3

E. faecium ATCC 700221 = assay type: cell-based, Enterococcus faecium
Experimental: as §1, §2, §3

E. faecium MRO 04198 = assay type: cell-based, Enterococcus faecium
Experimental: as §1, §2, §3

E. faecium MRO 04038 = assay type: cell-based, Enterococcus faecium
Experimental: as §1, §2, §3

Row | Structure (SMILES) | Antimicrobial Screening (MIC) (S. epidermidis MRO 02045) [µg/mL] | Antimicrobial Screening (MIC) (S. epidermidis MRO 02002) [µg/mL] | Antimicrobial Screening (MIC) [1] [µg/mL] | Antimicrobial Screening (MIC) [2] [µg/mL] | Antimicrobial Screening (MIC) (S. epidermidis MRO 02095) [µg/mL] | Antimicrobial Screening (MIC) [3] [µg/mL] | Antimicrobial Screening (MIC) [4] [µg/mL] | Antimicrobial Screening (MIC) [5] [µg/mL] | Antimicrobial Screening (MIC) [6] [µg/mL] | Antimicrobial Screening (MIC) (E. faecalis MRO 04050) [µg/mL] | Antimicrobial Screening (MIC) (E. faecalis MRO 04035) [µg/mL] | Antimicrobial Screening (MIC) (E. faecalis ATCC 29212) [µg/mL] | Antimicrobial Screening (MIC) (E. faecalis ATCC 51299) [µg/mL] | Antimicrobial Screening (MIC) (E. faecalis MRO 04205) [µg/mL] | Antimicrobial Screening (MIC) (S. aureus MRO 0001) [µg/mL] | Antimicrobial Screening (MIC) (S. aureus MRO 00030) [µg/mL] | Antimicrobial Screening (MIC) (S. aureus MRO 00055) [µg/mL] | Antimicrobial Screening (MIC) (S. aureus MRO 00013) [µg/mL] | Antimicrobial Screening (MIC) (S. aureus MRO 002053) [µg/mL] | Antimicrobial Screening (MIC) (S. aureus MRO 00059) [µg/mL] | also measured
1 | COC(=S)NC[C@H]1CN(c2ccc(N3CCN(C(=O)c4ccc([N+](=O)[O-])o4)CC3)c(F)c2)C(=O)O1 [Example 7, (S)—O-Methyl(3-(3-fluoro-4-(4-(5-nitrofuran-2-carbonyl)piperazin-1-yl)phenyl)-2-oxooxazolidin-5-yl)methylcarbamothioate] | 0.125 | 0.03 | 0.125 | 0.03 | 0.03 | 0.125 | 0.25 | 0.25 | 0.25 | 0.125 | 0.125 | 0.125 | 0.125 | 0.125 | 0.125 | 0.125 | 0.25 | 0.25 | 0.06 | 0.25 | Antimicrobial Screening (MIC) (S. aureus MRO 0003): 0.25 µg/mL; Antimicrobial Screening (MIC) (S. aureus ATCC 29213): 0.125 µg/mL; Antimicrobial Screening (MIC) (S. aureus MRO 00048): 0.125 µg/mL; Antimicrobial Screening (MIC) (S. aureus ATCC 43300): 0.125 µg/mL; Antimicrobial Screening (MIC) (E. faecium MRO 04037): 0.25 µg/mL; Antimicrobial Screening (MIC) (E. faecium ATCC 700221): 0.125 µg/mL; Antimicrobial Screening (MIC) (E. faecium MRO 04198): 0.25 µg/mL; Antimicrobial Screening (MIC) (E. faecium MRO 04038): 0.125 µg/mL
2 | COC(=S)NC[C@H]1CN(c2ccc(N3CCN(C(=O)C=Cc4ccc([N+](=O)[O-])o4)CC3)c(F)c2)C(=O)O1 [Example 40, (S)—O-Methyl(3-(3-fluoro-4-(4-(3-(5-nitrofuran-2-yl)acryloyl)piperazin-1-yl)phenyl)-2-oxooxazolidin-5-yl)methylcarbamothioate] | <0.03 | 0.125 | 0.125 | <0.03 | 0.06 | 0.06 | 0.125 | 0.125 | 0.06 | 0.25 | 0.25 | 0.25 | 0.25 | 0.25 | 0.25 | 0.125 | 0.25 | 0.25 | 0.06 | 0.25 | Antimicrobial Screening (MIC) (S. aureus MRO 0003): 0.25 µg/mL; Antimicrobial Screening (MIC) (S. aureus ATCC 29213): 0.25 µg/mL; Antimicrobial Screening (MIC) (S. aureus MRO 00048): 0.25 µg/mL; Antimicrobial Screening (MIC) (S. aureus ATCC 43300): 0.125 µg/mL; Antimicrobial Screening (MIC) (E. faecium MRO 04037): 0.25 µg/mL; Antimicrobial Screening (MIC) (E. faecium ATCC 700221): 0.125 µg/mL; Antimicrobial Screening (MIC) (E. faecium MRO 04198): 0.25 µg/mL; Antimicrobial Screening (MIC) (E. faecium MRO 04038): 0.25 µg/mL
